Results reported in patent publication US11744246B2, “Preparation of mammalian oocyte for fertilization via a soluble human PH20 hyaluronidase polypeptide” (SYNGENTA PARTICIPATIONS AG, priority 2017, dated 2023).

Columns and labels:
Format in all cases: cell-based
[1] = tested on: Botryotinia fuckeliana (Botrytis cinerea); assay: Botryotinia fuckeliana (Botrytis cinerea)/Liquid Culture (Gray Mould); details: 72 h, liquid culture, growth inhibition photometrically 3-4 days after application, compared to untreated control
[2] = tested on: Glomerella lagenarium (Colletotrichum lagenarium); assay: Glomerella Lagenarium (Colletotrichum Lagenarium)/Liquid Culture (Anthracnose); details: Colletotrichum orbiculare, liquid culture, growth inhibition photometrically 3-4 days after application, compared to untreated control
[3] = tested on: Fusarium culmorum; assay: microbe, parasite or virus in culture; details: 72 h, read-out: control of Fusarium culmorum
[4] = tested on: Monographella nivalis (Microdochium nivale); assay: Monographella nivalis (Microdochium nivale)/Liquid Culture (Foot Rot Cereals); details: 96 h, liquid culture, growth inhibition photometrically 4-5 days after application, compared to untreated control
[5] = tested on: Magnaporthe grisea (Pyricularia oryzae); assay: microbe, parasite or virus in culture; details: read-out: control of Magnaporthe grisea

Measured: inhibition of growth at 20 ppm

CC(COc1ccccc1F)(CC(F)(F)F)C(=O)Nc1cnc2c(F)cccc2c1 (stereo not shown) [E.01, 4,4,4-trifluoro-2-[(2-fluorophenoxy)methyl]-N-(8-fluoro-3-quinolyl)-2-methyl-butanamide]
≥ 80%: all assays above

CC(COc1cccc(F)c1)(CC(F)(F)F)C(=O)Nc1cnc2c(F)cccc2c1 (stereo not shown) [E.02, 4,4,4-trifluoro-2-[(3-fluorophenoxy)methyl]-N-(8-fluoro-3-quinolyl)-2-methyl-butanamide]
≥ 80%: all assays above

CC(COc1ccc(F)cc1)(CC(F)(F)F)C(=O)Nc1cnc2c(F)cccc2c1 (stereo not shown) [E.03, 4,4,4-trifluoro-2-[(4-fluorophenoxy)methyl]-N-(8-fluoro-3-quinolyl)-2-methyl-butanamide]
≥ 80%: all assays above

CC(C)(C)COCC(C)(CC(F)(F)F)C(=O)Nc1cnc2c(F)cccc2c1 (stereo not shown) [E.04, 2-(2,2-dimethylpropoxymethyl)-4,4,4-trifluoro-N-(8-fluoro-3-quinolyl)-2-methyl-butanamide]
≥ 80%: all assays above

CC(COc1ccc(Cl)cc1)(CC(F)(F)F)C(=O)Nc1cnc2c(F)cccc2c1 (stereo not shown) [E.05, 2-[(4-chlorophenoxy)methyl]-4,4,4-trifluoro-N-(8-fluoro-3-quinolyl)-2-methyl-butanamide]
≥ 80%: all assays above

CC1(OCC(C)(CC(F)(F)F)C(=O)Nc2cnc3c(F)cccc3c2)CCCC1 (stereo not shown) [E.06, 4,4,4-trifluoro-N-(8-fluoro-3-quinolyl)-2-methyl-2-[(1-methylcyclopentoxy)meth-yl]butanamide]
≥ 80%: all assays above

CC(COC1CCC1)(CC(F)(F)F)C(=O)Nc1cnc2c(F)cccc2c1 (stereo not shown) [E.07, 2-(cyclobutoxymethyl)-4,4,4-trifluoro-N-(8-fluoro-3-quinolyl)-2-methyl-butanamide]
≥ 80%: all assays above

CC(COC1CCCCC1)(CC(F)(F)F)C(=O)Nc1cnc2c(F)cccc2c1 (stereo not shown) [E.08, 2-(cyclohexoxymethyl)-4,4,4-trifluoro-N-(8-fluoro-3-quinolyl)-2-methyl-butanamide]
≥ 80%: all assays above
